Test results: patent US20250098679A1, “HERBICIDAL PYRIDONE DERIVATIVES” (SYNGENTA CROP PROTECTION AG, priority 2021, published 2025)

What was measured:
Type in all cases: in vivo
Settings in all cases: evaluated after 13 days
[1] = tested on: Zea mays (ZEAMX); assay: Post-emergence Test, Zea mays (ZEAMX); parameters: key to percentage damage caused to the plant, ZEAMX (five-point scale): 5=81-100%, 4=61-80%, 3=41-60%, 2=21-40%, 1=0-20% damage
Procedure: (§1) Seeds of a variety of test species are sown in standard soil in pots (Setaria faberi (SETFA), Echinochloa crus-galli (ECHCG), Zea mays (ZEAMX), Ipomoea hederacea (IPOHE), Amaranthus palmeri (AMAPA), Amaranthus retoflexus (AMARE)). After 8 days cultivation under controlled conditions in a glasshouse (at 24° C./16° C., day/night; 14 hours light; 65% humidity), the plants are sprayed with an aqueous spray solution derived from the formulation of the technical active ingredient in acetone/water (50:50) solution containing 0.5% Tween 20 (polyoxyethelyene sorbitan monolaurate, CAS RN 9005-64-5). Compounds are applied at 1000 g/ha unless otherwise stated. The test plants are then grown in a glasshouse under controlled conditions in a glasshouse (at 24° C./16° C., day/night; 14 hours light; 65% humidity) and watered twice daily. After 13 days the test is evaluated for the percentage damage caused to the plant. The biological activities are shown in the following table on a five-point scale (5=81-100%; 4=61-80%; 3=41-60%; 2=21-40%; 1=0-20%; -=not tested).

[2] = tested on: Ipomoea hederacea (IPOHE); assay: Post-emergence Test, Ipomoea hederacea (IPOHE); parameters: key to percentage damage caused to the plant, IPOHE (five-point scale): 5=81-100%, 4=61-80%, 3=41-60%, 2=21-40%, 1=0-20% damage
Procedure: as §1

[3] = tested on: Echinochloa crus-galli (ECHCG); assay: Post-emergence Test, Echinochloa crus-galli (ECHCG); parameters: key to percentage damage caused to the plant, ECHCG (five-point scale): 5=81-100%, 4=61-80%, 3=41-60%, 2=21-40%, 1=0-20% damage
Procedure: as §1

[4] = tested on: Amaranthus palmeri (AMAPA); assay: Post-emergence Test, Amaranthus palmeri (AMAPA); parameters: key: 5=81-100%, 4=61-80%, 3=41-60%, 2=21-40%, 1=0-20% damage
Procedure: as §1

[5] = tested on: Amaranthus retoflexus (AMARE); assay: Post-emergence Test, Amaranthus retoflexus (AMARE); parameters: key to percentage damage caused to the plant, AMARE (five-point scale): 5=81-100%, 4=61-80%, 3=41-60%, 2=21-40%, 1=0-20% damage
Procedure: as §1

[6] = tested on: Setaria faberi (SETFA); assay: Post-emergence Test, Setaria faberi (SETFA); parameters: key to percentage damage caused to the plant, SETFA (five-point scale): 5=81-100%, 4=61-80%, 3=41-60%, 2=21-40%, 1=0-20% damage
Procedure: as §1

Structure (SMILES) | percentage damage caused to the plant, ZEAMX (five-point scale) ([1]; 1000 g/ha) | percentage damage caused to the plant, IPOHE (five-point scale) ([2]; 1000 g/ha) | percentage damage caused to the plant, ECHCG (five-point scale) ([3]; 1000 g/ha) | percentage damage caused to the plant, AMAPA (five-point scale) ([4]; 1000 g/ha) | percentage damage caused to the plant, AMARE (five-point scale) ([5]; 1000 g/ha) | percentage damage caused to the plant, SETFA (five-point scale) ([6]; 1000 g/ha) | also measured
CCn1c(Cn2ccc(-c3ccc(Cl)cc3)n2)cc(=O)c(C(=O)O)c1-c1ccc(Cl)c(Cl)c1 [Compound 199, 6-[[3-(4-chlorophenyl)pyrazol-1-yl]methyl]-2-(3,4-dichlorophenyl)-1-ethyl-4-oxo-pyridine-3-carboxylic acid] |  |  |  |  |  |  | Post-emergence Test ZEAMX, percentage damage caused to the plant (five-point scale) ([1]; 250 g/Ha (*)): 0; Post-emergence Test ZEAMX, percentage damage caused to the plant (five-point scale) ([1]; 1000 g/ha): 0; Post-emergence Test IPOHE, percentage damage caused to the plant (five-point scale) ([2]; 250 g/Ha (*)): 0; Post-emergence Test IPOHE, percentage damage caused to the plant (five-point scale) ([2]; 1000 g/ha): 2 (2=21-40%); Post-emergence Test ECHCG, percentage damage caused to the plant (five-point scale) ([3]; 250 g/Ha (*)): 1 (1=0-20%); Post-emergence Test AMAPA, percentage damage caused to the plant (five-point scale) ([4]; 250 g/Ha (*)): 0; Post-emergence Test AMAPA, percentage damage caused to the plant (five-point scale) ([4]; 1000 g/ha): 0; Post-emergence Test AMARE, percentage damage caused to the plant (five-point scale) ([5]; 250 g/Ha (*)): 0; Post-emergence Test AMARE, percentage damage caused to the plant (five-point scale) ([5]; 1000 g/ha): 0; Post-emergence Test SETFA, percentage damage caused to the plant (five-point scale) ([6]; 1000 g/ha): 0
CCOCc1ccnn1Cc1cc(=O)c(C(=O)O)c(-c2ccc(Cl)c(Cl)c2)n1CC [Compound 188, 2-(3,4-dichlorophenyl)-6-[[5-(ethoxymethyl)pyrazol-1-yl]methyl]-1-ethyl-4-oxo-pyridine-3-carboxylic acid] | 0 | 1 (1=0-20%) | 0 | 1 (1=0-20%) | 0 | 0 | 
C/C=C/C(=O)Nc1ccn(Cc2cc(=O)c(C(=O)O)c(-c3ccc(Cl)c(Cl)c3)n2CC)n1 [Compound 155, 6-[[3-[[(E)-but-2-enoyl]amino]pyrazol-1-yl]methyl]-2-(3,4-dichlorophenyl)-1-ethyl-4-oxo-pyridine-3-carboxylic acid] | 0 | 0 | 1 (1=0-20%) | 1 (1=0-20%) | 0 | 0 | percentage damage caused to the plant, ZEAMX (five-point scale) ([1]; 250 g/Ha): 0; percentage damage caused to the plant, IPOHE (five-point scale) ([2]; 250 g/Ha): 1 (1=0-20%); percentage damage caused to the plant, ECHCG (five-point scale) ([3]; 250 g/Ha): 1 (1=0-20%); percentage damage caused to the plant, AMAPA (five-point scale) ([4]; 250 g/Ha): 1 (1=0-20%); percentage damage caused to the plant, AMARE (five-point scale) ([5]; 250 g/Ha): 1 (1=0-20%); percentage damage caused to the plant, SETFA (five-point scale) ([6]; 250 g/Ha): 1 (1=0-20%)
CCn1c(Cn2cc(S(C)(=O)=O)cn2)cc(=O)c(C(=O)O)c1-c1ccc(Cl)c(Cl)c1 [Compound 90, 2-(3,4-dichlorophenyl)-1-ethyl-6-[(4-methylsulfonylpyrazol-1-yl)methyl]-4-oxo-pyridine-3-carboxylic acid] | 0 | 0 | 1 (1=0-20%) | 1 (1=0-20%) | 1 (1=0-20%) | 0 | 
CCOC(=O)c1c(-c2ccc(Cl)c(Cl)c2)n(CC)c(Cn2cnc([N+](=O)[O-])c2)cc1=O [Compound 51, ethyl 2-(3,4-dichlorophenyl)-1-ethyl-6-[(4-nitroimidazol-1-yl)methyl]-4-oxo-pyridine-3-carboxylate] | 0 | 1 (1=0-20%) | 1 (1=0-20%) | 1 (1=0-20%) | 0 | 1 (1=0-20%) | 
